In article PMC3231940, “Disposition, metabolism and mass balance of [^14C]apremilast following oral administration” (Xenobiotica; the Fate of Foreign Compounds in Biological …, 2011):
Several values for one entry are separate records, joined by “and”; a condition that tells them apart may be missing. Identical values can stand only once.

Test: Metabolite profiling by HPLC radiochromatography in plasma, urine and faeces
Format: in vivo, human
Experimental: Individual plasma samples collected from all subjects at 0.5, 1, 2.5, 8, 24, 36 and 48 h post-dose were analysed for metabolite profiling. A pooled sample (equal volume from 0.5,1,2.5,8 and 24 h) from subject 1 was also used for metabolite profiling. Three volumes of acetonitrile were added to each sample, followed by mixing and centrifu-gation. The supernatant was removed and the pellet was washed twice with acetonitrile. The combined superna-tants were evaporated to dryness under a stream of nitrogen. The residues were re-suspended in acetonitrile: 1% formic acid in water (1:1), assayed for extraction recovery and analysed for metabolite profiling.
For each subject, urine samples were pooled using an equal percentage by volume of the 0-4, 4-8, 8-12 and 12-24-h samples. The 24-48-h urine sample from each subject and a pool of the 0-168-h urine samples from subject 1 were also analysed for metabolite profiling. Samples were mixed and centrifuged prior to the supernatants being transferred to fresh tubes for metabolite profiling analysis.
Faecal homogenates for metabolite profiling were pooled using an equal percentage by weight to generate two pools (0-48 h and 48-96 h) for each subject. An additional pool (0-168 h) was prepared using the samples collected from subject 1. An aliquot (approximately 6 g) of each pool was extracted with three volumes of acetonitrile; samples were mixed and centrifuged. The supernatant was removed and the pellets were extracted twice with an additional 12 mL of acetonitrile each time. The combined supernatants were evaporated to dryness under a stream of nitrogen and the residue was re-suspended in a small volume (approximately 400 μL) of acetonitrile: 1% formic acid in water (1:1). Samples were assayed for extraction recovery prior to metabolite profiling.
HPLC analysis for metabolite profiling was performed using a Shimadzu LC-10ADVP (Shimadzu Corp., Columbia, MD) or a Waters 2695 Alliance Separation Module (Waters Corp., Milford, MA) with the autosampler set to an ambient temperature of approximately 22°C. ASPD-10A VPUV-Vis Detector or a Waters 996 Photodiode array detector set to 254 nm was used to detect UV absorbance. [^14C]Apremilast and metabolites were separated using a Phenomenex Luna C 18(2) column (150 × 4.6 mm, 3 μm; Phenomenex, Torrance, CA) equipped with a RP-18 guard column (15×3.2 mm, 7 μm) or using an ACE 3 C18 column (150 × 4.6 mm, 3 μm; Advanced Chromatography Technologies, Aberdeen, Scotland) equipped with an ACE 3 guard column (10×3mm, 3 μm). The mobile phases used were 0.4% formic acid in water; pH 3.2 with ammonium hydroxide (mobile phase A) and acetonitrile (mobile phase B). The column temperature was 30°C and the flow rate was 0.7mL/min. The linear gradient was delivered as follows: 0-5 min to 100% A; 5-20 min to 85% A; 20-30 min hold at 85% A; 30-50 min to 65% A; 50-60 min to 60% A; 60-70 min to 50% A; 70-75 min to 0% A; hold at 0% A until 80 min; return to initial conditions over 2 min.
Radioactivity profiles for excreta were determined by radiochromatography using liquid chromatography-accurate radioisotope counting stop-flow system (LC-ARC; AIM Research Company, Wilmington, DE). Radioactivity was detected using a β-Ram Radioflow detector (IN/US Systems, Brandon, FL) equipped with a 1300-μL liquid cell. Liquid scintillation cocktail and column eluate were mixed at a ratio of 2.5:1. Radioactive peaks were quantified using LC-ARC data handling software. Plasma radioactivity profiles were determined by collecting the column eluate into 96-well Deepwell LumaPlates at a rate of 0.25 min/fraction. The plates were dried and the radioactivity in each well determined using a PerkinElmer TopCount NXT Microplate Scintillation Counter. HPLC radiochromatograms were reconstructed using LC-ARC data handling software.
Pharmacokinetic data were generated by non-compartmental analysis of plasma or whole blood versus time profiles using WinNonlin (version 4.1, Enterprise Edition). […]

[1] = radiochromatography, single oral 20-mg dose, mean ± SD

For `CCOc1cc([C@@H](CS(C)(=O)=O)N2C(=O)c3cccc(NC(C)=O)c3C2=O)ccc1OC` [Apremilast, (+)-N-[2-[(lS)-1-(3-ethoxy-4-methoxyphenyl)-2-(methylsulfonyl)ethyl]-1,3-dioxo-2,3-dihydro-lH-isoindol-4-yl]acetamide], the “Plasma (% AUC relative to TRA); share of circulating radioactivity” value (AUC0-t (unchanged drug or metabolite)/AUC0-48 (TRA) * 100%) was 45% and 44.8%, the “Plasma exposure (AUC) relative to total radioactivity” value (based on radiochromatography) was “approximately 40%” and the “% of dose excreted, faeces” value (faeces collected up to 96-h post-dose) was 4 % of dose and 4.1 % of dose. For the same compound, the half-life (human, plasma, radiochromatography, single oral 20-mg dose, mean ± SD, read-out: Plasma t½ (converted)) was 7.1 ± 2.7 h, the Tmax (male, human, plasma, radiochromatography, single oral 20-mg dose, median and range) was 1.8 h and the “Plasma Cmax” value (plasma radioactivity concentrations and radiochromatography, single oral 20-mg dose, mean ± SD) was 321±134 ngEq/mL. The “Plasma AUC0-t” value [1] was 2455±690 ngEq*h/mL, the “Plasma AUC0-∞” value [1] was 2636±705 ngEq*h/mL and the “% of dose excreted, urine” value (urine collected up to 48-h post-dose) was 2.8 % of dose.
